# In article PMC5454592, “Pharmacological and Toxicological Properties of the Potent Oral γ-Secretase Modulator BPN-15606” (The Journal of Pharmacology and Experimental Therapeutics, 2017):
# Read-outs that look alike come from different tables or passages of the source.
# How the values were obtained:
# [1] = Toxicokinetics in rats (7-day po); type: in vivo; details: male, Sprague-Dawley, rat, plasma; for MRT last: day 1, read-out: mean residence time to the last time point
# Description: Data were subjected to noncompartmental analysis using WinNonlin Phoenix Model 200 (for extravascular administration) or Model 201 (for i.v. bolus administration) and the sparse sampling feature; a uniform weighting factor was applied to each data set. Time to maximum plasma concentration (Tmax) and maximum plasma concentration (Cmax) values were determined directly from the data. Area under the plasma concentration–time curve to the last time point (AUClast) values were calculated using the log/linear trapezoidal (i.v. dose) or linear up/log down trapezoidal (po dose). Values were calculated using the plasma data from composite groups. The dose administered was input to the program as mg/kg, and as a result no additional corrections for individual body weights of the animals were necessary. The following parameters and constants were determined for the i.v. and po groups: observed Cmax, Tmax, AUClast, area under the plasma concentration–time curve extrapolated to infinity, terminal phase elimination half-life, and mean residence time to the last time point. The volume of distribution at steady state and clearance were calculated using the i.v. group data. Bioavailability after oral administration was calculated using the AUClast values for both the i.v. and po groups.
# The objectives of this toxicity study were to determine maximum tolerated dose (MTD), characterize the potential toxicity, and calculate toxicokinetic parameters of BPN-15606 in adult male Sprague–Dawley rats (8–10 weeks of age) following daily po dose administration for 7 consecutive days, and to evaluate its potential to damage chromosomes or cause mitotic spindle abnormalities in vivo, as measured by the incidence of micronucleus formation in RNA-containing erythrocytes (bone marrow micronucleus assay). An overview of the study design is presented in Supplemental Table 8. Male rats were administered BPN-15606 po for 7 consecutive days at 30, 100, or 300 mg/kg (groups 2, 3, and 4). A control group (group 1) was given vehicle, 15% Labrasol/85% sterile water, at an equivalent dose volume (10 ml/kg). A 375 mg/kg dose (group 5) was included for determination of day 1 plasma drug levels. Clinical observations were recorded twice daily.
# [2] = Metabolite identification in cryopreserved hepatocytes; type: in vitro ADME, mouse, rat, dog, monkey, human; details: hepatocyte cultures from five species
# Description: Test compound (1 μM) was incubated at 37°C for 4 hours with cryopreserved mouse, rat, dog, monkey, or human hepatocytes. Identification of metabolites’ molecular weights and relative abundance of the specific metabolites was based on high performance liquid chromatography (HPLC)/MS/MS peak areas, and structural characterization of metabolites was accomplished by LC/MS/MS/Q-Trap.
# HReN-mGAP AD ReN cells = experiment: Three-dimensional human neural cell culture model of AD (MSD ELISA); type: cell-based; details: 70 nM
# Description: HReN-mGAP AD ReN cell expression APP^Swedish/London and Presenilin 1^ΔE9 were previously described ([Choi et al., 2014]). The HReN-mGAP AD ReN cells were three-dimensional (3D)–differentiated for 7 weeks, as previously described ([Choi et al., 2014]). The cultures were then harvested and analyzed for the soluble (conditioned media) and insoluble Aβ40/42/38 and p-tau/tau levels, using Meso Scale Discovery electrochemiluminescence system. BPN-15606 (70 nM) and the same volume of DMSO controls were treated in the last 4 weeks. The potential toxicity of the drugs was monitored by CytoTox-ONE (lactate dehydrogenase) assay after 1 week of the treatments. At the end of the treatments, the soluble (media) and the insoluble fractions (5 M GuHCl-soluble extracts) were collected and analyzed for Aβ38, Aβ40, and Aβ42 with MSD enzyme-linked immunosorbent assay (ELISA; V-Plex 6E10 Aβ40/Aβ42/Aβ38 kit). The custom-made plates were used for detecting total tau (BT2; ThermoFisher Scientific, Sommerset, NJ) and pThr181 tau (At270; ThermoFisher Scientific, Sommerset, NJ). The insoluble fraction was dissolved in 5 M GuHCl, and pThr181 tau, total tau, Aβ40, Aβ42, and Aβ38 concentrations were determined by MSD ELISA. The levels of the control protein Tuj1 were determined by dot-blot analysis in the GuHCl lysates (data not shown).
# in vivo = details: both sexes, cynomolgus monkey, po, repeat dose
# Aβ neuritic plaques = experiment: Chronic repeat-dose efficacy in PSAPP transgenic mice (Thioflavin S plaque load); type: in vivo
# Description: Thirty-five female double-transgenic mice, model presenilin amyloid precursor protein ([Jankowsky et al., 2004]), purchased from The Jackson Laboratory (Bar Harbor, ME) [B6.C3-Tg (APPswe, PSEN1dE9) 85Dbo/Mmjax, stock no. 0034829] and then bred in-house, were used in the study at 90 days of age. The mice were housed in a temperature-controlled room at a constant 22°C in a 12:12-hour light/dark cycle (lights off at 18:00), with food and water available ad libitum. Age-matched mice were housed by treatment group in groups of two to four per cage. All experimental procedures were reviewed and approved by Institutional Animal Care and Use Committee at University of California, San Diego. Subjects were randomly assigned to either the drug group (BPN-15606) or vehicle, with individual groups ranging from 9 to 10 mice. Mice were treated for 6 months with BPN-15606 at a dose of 10 mg/kg/d. For the drug administration, BPN-15606 was milled into standard rodent chow, processed by Research Diets (New Brunswick, NJ). All animals were weighed three times weekly to assess any adverse effects on normal weight gain during the 6-month treatment period. Food consumption was determined by weighing the metal cage, including the chow, to the nearest 0.1 g.
# To determine Aβ fibril plaque load, floating coronal sections from AD and wild-type mice, n = 4 for each group, were washed in miliQ water and mounted on Fisherbrand Superfrost Plus microscope slides, before being processed for 1% (w/v) Thioflavin S staining. All images were taken with Leica (Mannheim, Germany) fluorescence microscope at 5× and with the same exposure across all images. The percent plaque within specified areas of a series of hippocampal and frontal cortex sections was quantified using ImageJ software from National Institutes of Health. Images were converted to 8-bit grayscale, and area of interest was traced and determined. Brightness and B/W threshold were adjusted appropriately and consistently across all images. The area of plaque particles within the area of interest was obtained, and the percent plaque was calculated. […]
# [3] = last 4 weeks of 7-week 3D culture, media
# [4] = 10 mg/kg/d in chow for 6 months
structure (smiles),measurement,setting,value
"COc1nc(-c2cc(C)c(N[C@@H](C)c3ccc(F)cc3)nn2)ccc1-n1cnc(C)c1 [BPN-15606, (S)-N-(1-(4-fluorophenyl)ethyl)-6-(6-methoxy-5-(4-methyl-1H-imidazol-1-yl)pyridin-2-yl)-4-methylpyridazin-3-amine]",Tmax,"[1]; 30 mg/kg, rats, 30 mg/kg, day 1, read-out: mean Tmax",13.3 h
same,Tmax,"[1]; 30 mg/kg, rats, 30 mg/kg, day 7, read-out: mean Tmax",6.7 h
same,Tmax,"[1]; rats po, depending on dose, read-out: Tmax for individual animals",4 to 24 h
same,MRT last,"[1]; rats, 30 mg/kg",9.1 h
same,MRT last,"[1]; rats, 100 mg/kg",13.6 h
same,Tmax,"[1]; rats, 100 and 300 dose groups, day 1, read-out: mean Tmax (time to the peak plasma drug level)",18.7 h
same,uniquely human metabolites,[2],absence of any unique human metabolites
same,uniquely human metabolites,[2]; listed as BPN-15605,no uniquely human metabolites identified
same,soluble Aβ38 level,HReN-mGAP AD ReN cells; [3],increasing
same,soluble Aβ40 level,HReN-mGAP AD ReN cells; [3],dramatically decreased
same,soluble Aβ42/40 ratio,HReN-mGAP AD ReN cells; [3],dramatically decreased
same,soluble Aβ42 level,HReN-mGAP AD ReN cells; [3],dramatically decreased
same,insoluble Aβ40 level,HReN-mGAP AD ReN cells; 5 M GuHCl-soluble extracts,decreased
same,insoluble Aβ42 level,HReN-mGAP AD ReN cells; 5 M GuHCl-soluble extracts,decreased
same,insoluble pThr181 tau level,HReN-mGAP AD ReN cells; 5 M GuHCl-soluble extracts,decreased
same,insoluble total tau level,HReN-mGAP AD ReN cells; 5 M GuHCl-soluble extracts,decreased
same,MTD at 6 days,in vivo,< 300 mg/kg/day
same,necropsy findings at end of study,Aβ neuritic plaques; 10 mg/kg/d for 6 months,no significant adverse findings
same,"accumulation of Aβ neuritic plaques in cortex (Thioflavin S, densitometry)",Aβ neuritic plaques; [4],significantly reduced accumulation of Aβ neuritic plaques
same,"accumulation of Aβ neuritic plaques in hippocampus (Thioflavin S, densitometry)",Aβ neuritic plaques; [4],significantly reduced accumulation of Aβ neuritic plaques
